Structures can show the parent of a compound that is named as a salt.

Usually IC50 stands for the midpoint of a concentration-inhibition curve. Low readings indicate greater potency in that assay, high ones weaker potency in that assay.

The target of this test is T1, MT1-MMP (Homo sapiens, UniProt P50281).
T1 construct: made in house
Description: In vitro inhibition of MT1-MMP, fluorogenic peptide substrate. The format is biochemical. The note with it: catalytic domain of human MT1-MMP; substrate 10 μM; 37° C. How it is done: The inhibitory activities of compounds of formula I on MT1-MMP, MMP1 (collagenase 1) and MMP2 (gelatinase A) can be determined as follows:
Stock solutions of substrate (MCA-Pro-Leu-Gly-Leu-Dpa-Ala-Arg-NH2, Knight, C. G., Willenbrock, F., Murphy, G., A novel coumarin-labelled peptide for sensitive continuous assays of the matrix metalloproteinases, FEBS lett., 296, 263-266, (1992)), are prepared in 100% DMSO at a concentration 1.0 mM. Stock solutions of inhibitors are prepared in 100% DMSO. The inhibitor is diluted into the assays from a solution in 100% DMSO, and controls substitute an equal volume of DMSO so that the final DMSO concentration from inhibitor and substrate dilutions in all assays is 6.0%. Assays are performed in assay buffer (150 mM NaCl, 10 mM CaCl2, 50 mM Tris-Cl pH7.5, 0.05% Brij-35) containing 6.0% DMSO once the substrate and inhibitor are diluted into it. The substrate concentration used in the assays is 10 μM. The test is carried out at 37° C. The fluorescence changes are monitored using an excitation wavelength of 320 nm and an emission wavelength of […]. The reaction mixture is added in duplicate to appropriate wells of a 96 well microfluor plate. The reaction mixture is preincubated with the inhibitor for 30 min, the reaction is started by the addition of MMP enzyme and the fluorescence intensity is measured for 10 min. A time point that is on a linear part of the curve is chosen to determine the activity. The inhibition results are expressed as the inhibitor concentrations that produced 50% inhibition (IC50) of the activity in the control (non-inhibited) reaction. In this test, the compounds of the formula I and their pharmacologically acceptable salts have an inhibiting concentration IC50 [μmol/litre] of 0.0001 and 0.030, usually of 0.0002 to 0.010, for MMP2 and an inhibiting concentration IC50 [μmol/litre] of 0.0005 and 0.125, usually of 0.001 to 0.05, for MT1-MMP.
Plasmid: The catalytic domain of the cDNA fragment encoding a full length of human MT1-MMP gene [from Prof. Motoharu Seiki, Institute of Medical Science, The University of Tokyo; Sato, H., Takino, T., Okada, Y., Cao, J., Shinagawa, A., Yamamoto, E. and Seiki, M. Nature (London), 370:61-65, 1994)] is amplified by polymerase chain reaction (PCR). […] The resulting PCR product of a 519-bp fragment is subcloned between the NdeI and BamHI unique sites of pET11a (Stratagene). The sequence of catalytic domain of MT1-MMP (CD-MT1-MMP) is verified by the ABI PRIS™ dye terminator cycle sequencing kit with the ABI PRISM™ 377 DNA sequencer (Perkin Elmer).
Expression and Purification: The subcloned CD-MT1-MMP is used to transfect E. coli strain BL21-[DE3] (Hanahan, D. J. Mol. Biol. 1983; 166(4):557-80) and expressed as insoluble inclusion body materials. Transfectants are grown at 37° C. in 50 ml Luria-Bertani (LB) medium in the presence of 50 µg/ml ampicillin to a cell density of OD600=0.6-1.0, and CD-MT1-MMP production is induced with 1 mM isopropyl-1-D-galactopyranoside (IPTG). After treatments with 5 mg/ml lysozyme and 10 μg/ml DNase I, the inclusion bodies are prepared from the harvested cells by using the detergent buffer containing 0.2 M NaCl, 1% w/v deoxycholic acid, and 1% v/v Nonidet P40. The solubilization is achieved by resuspending the inclusion bodies in the solubilization buffer composed of 6 M urea, 100 mM 2-mercaptoethanol, and 20 mM Tris-Cl, pH8.5. The enzyme is purified and renaturated using 10 ml of a Q-Sepharose (Amersham Pharmacia Biotech) column equilibrated with 5 mM CaCl2, 0.02% v/v NaN3, in 20 mM Tris-Cl pH7.5. After washing with three volumes of the same buffer, the bound proteins are eluted with two volumes of a linear gradient of 0.5-1.0 M NaCl. The collected fractions (1 ml each) are dialyzed for 6 h in equilibrated buffer. Superdex G200 column (1×15 cm) (Amersham Pharmacia) is equilibrated in 20 mM Tris-Cl, pH 7.5, 5 mM CaCl2, 0.02% NaN3. The desalted sample is applied to Superdex G200 column and chromatographed at 0.5 ml/min. […]
Compound “2-[(Cyclopropylmethoxy-benzenesulfonyl)-(4-[1,2,4]triazol-1-yl-benzyl)-amino]-N-hydroxyacetamide-hydrochloride salt [Example 82b]” registered an IC50 of 0.6 nM.
`O=C(CN(Cc1ccc(-n2cncn2)cc1)S(=O)(=O)c1ccc(OCc2ccoc2)cc1)NO` [Example 82c] came in with an IC50 of 10.7 nM.
In turn, `C=CCCOc1ccc(S(=O)(=O)N(CC(=O)NO)Cc2ccc(-n3ccnc3)cc2)cc1` [Example 80, 2-[(4-But-3-enyloxy-benzenesulfonyl)-(4-imidazol-1-yl-benzyl)-amino]-N-hydroxy-acetamide-hydrochloride] came in with an IC50 of 1.2 nM.
`C#CCOc1ccc(S(=O)(=O)N(CC(=O)NO)Cc2ccc(OC)cc2)cc1` [Example 75, [(4-methoxy-benzyl)-[4-prop-2-ynyloxy-benzenesulfonyl]-amino]-N-hydroxy-acetamide] showed an IC50 of 1.4 nM.
With `C=CCCOc1ccc(S(=O)(=O)N(CC(=O)NO)Cc2ccc(N3CCOCC3)cc2)cc1` [Example 81, 2-[(4-But-3-enyloxy-benzenesulfonyl)-(4-morpholin-4-yl-benzyl)-amino]-N-hydroxy-acetamide-hydrochloride] the figure was 4.6 nM; with `O=C(CN(Cc1ccc(-n2cncn2)cc1)S(=O)(=O)c1ccc(OCCC2CC2)cc1)NO` [Example 82a], 1.8 nM.
In the case of `C=CCCOc1ccc(S(=O)(=O)N(CC(=O)NO)Cc2ccc(N3CCCC3)cc2)cc1` [Example 84a, 2-[(4-But-3-enyloxy-benzenesulfonyl)-(4-(pyrrolidin-1-yl)-benzyl)-amino]-N-hydroxyacetamide-hydrochloride], the IC50 was 20.4 nM.
As to `COc1ccc(CN(CC(=O)NO)S(=O)(=O)c2ccc(OCCCCl)cc2)cc1` [Example 68, 2-{[4-(3-chloro-propoxy)-benzenesulfonyl]-(4-methoxy-benzyl)amino}-N-hydroxy-acetamide], the IC50 came out at 5.2 nM.
`C=CCCOc1ccc(S(=O)(=O)N(CC(=O)NO)Cc2cccc(F)n2)cc1` [Example 83a, 2-([4-But-3-enyloxy-benzenesulfonyl]-(6-fluoro-pyridine-2-yl)methyl-amino)-N-hydroxyacetamide] yielded an IC50 of 0.3 nM.
With `C=CCCOc1ccc(S(=O)(=O)N(CC(=O)NO)Cc2ccc(-n3cncn3)cc2)cc1` [Example 79, 2-[(4-but-3-enyloxy-benzenesulfonyl)-(4-[1,2,4]triazol-1-yl-benzyl)-amino]-N-hydroxy-acetamide-hydrochloride salt] the figure was 0.7 nM.

Values taken from patent publication US8034810B2, “Arylsulfonamido-substituted hydroxamic acid derivatives” (Novartis AG, priority 1999, dated 2011).
